This is an account of results in US20160287589A1, “SUBSTITUTED-IMIDAZOPYRIDAZINES” (BAYER PHARMA AKTIENGESELLSCHAFT, priority 2013, published 2016).

The target of assay [1] is T1, MKNK1 (Homo sapiens, UniProt Q9BUB5, T385D).
T1 construct: GST (N); purchased Carna Biosciences 02-145; host or cells: insect cells (baculovirus expression system)
Kind of assay: MKNK1 kinase assay (MKNK1 TR-FRET assay). To be noted: 10 μM ATP, 15 min preincubation. Format: biochemical. An excerpt:
MKNK1-inhibitory activity of compounds of the present invention was quantified employing the MKNK1 TR-FRET assay as described in the following paragraphs.
A recombinant fusion protein of Glutathione-S-Transferase (GST, N-terminally) and human full-lengt MKNK1 (amino acids 1-424 and T344D of accession number BAA 19885.1), expressed in insect cells using baculovirus expression system and purified via glutathione sepharose affinity chromatography, was purchased from Carna Biosciences (product no 02-145) and used as enzyme. As substrate for the kinase reaction the biotinylated peptide biotin-Ahx-IKKRKLTRRKSLKG (C-terminus in amide form) was used which can be purchased e.g. form the company Biosyntan (Berlin-Buch, Germany).
For the assay 50 nL of a 100 fold concentrated solution of the test compound in DMSO was pipetted into a black low volume 384 well microtiter plate (Greiner Bio-One, Frickenhausen, Germany), 2 μL of a solution of MKNK1 in aqueous assay buffer [50 mM HEPES pH 7.5, 5 mM magnesium chloride, 1.0 mM dithiothreitol, 0.005% (v/v) Nonidet-P40 (Sigma)] was added and the mixture was incubated for 15 min at 22° C. to allow pre-binding of the test compounds to the enzyme before the start of the kinase reaction. […] The concentration of MKNK1 was adjusted depending of the activity of the enzyme lot and was chosen appropriate to have the assay in the linear range, typical concentrations were in the range of […]. The reaction was stopped by the addition of 5 μL of a solution of TR-FRET detection reagents (5 nM streptavidine-XL665 [Cisbio Bioassays, Codolet, France] and 1 nM anti-ribosomal protein S6 (pSer236)-antibody from Invitrogen [#44921G] and 1 nM LANCE EU-W1024 labeled ProteinG [Perkin-Elmer, product no. AD0071]) in an aqueous EDTA-solution (100 mM EDTA, 0.1% (w/v) bovine serum albumin in 50 mM HEPES pH 7.5).
(§1) The resulting mixture was incubated for 1 h at 22° C. to allow the formation of complex between the phosphorylated biotinylated peptide and the detection reagents. Subsequently the amount of phosphorylated substrate was evaluated by measurement of the resonance energy transfer from the Eu-chelate to the streptavidine-XL. Therefore, the fluorescence emissions at 620 nm and 665 nm after excitation at 350 nm were measured in a TR-FRET reader, e.g. a Rubystar (BMG Labtechnologies, Offenburg, Germany) or a Viewlux (Perkin-Elmer). The ratio of the emissions at 665 nm and at […] was taken as the measure for the amount of phosphorylated substrate. The data were normalised (enzyme reaction without inhibitor=0% inhibition, all other assay components but no enzyme=100% inhibition).
For orientation: In TR-FRET formats the signal depends on donor and acceptor labels being close together.

Assay [2] deals with T1, MKNK1. As to the kind of experiment: MKNK1 kinase high ATP assay (TR-FRET-based). In kind it is biochemical. To be noted: 2 mM ATP, 15 min preincubation. As for the experimental part:
MKNK1 Kinase High ATP Assay
MKNK1-inhibitory activity at high ATP of compounds of the present invention after their preincubation with MKNK1 was quantified employing the TR-FRET-based MKNK1 high ATP assay as described in the following paragraphs.
A recombinant fusion protein of Glutathione-S-Transferase (GST, N-terminally) and human full-length MKNK1 (amino acids 1-424 and T344D of accession number BAA 19885.1), expressed in insect cells using baculovirus expression system and purified via glutathione sepharose affinity chromatography, was purchased from Carna Biosciences (product no 02-145) and used as enzyme. As substrate for the kinase reaction the biotinylated peptide biotin-Ahx-IKKRKLTRRKSLKG (C-terminus in amide form) was used, which can be purchased e.g. from the company Biosyntan (Berlin-Buch, Germany).
For the assay 50 nL of a 100 fold concentrated solution of the test compound in DMSO was pipetted into a black low volume 384 well microtiter plate (Greiner Bio-One, Frickenhausen, Germany), 2 μL of a solution of MKNK1 in aqueous assay buffer [50 mM HEPES pH 7.5, 5 mM magnesium chloride, 1.0 mM dithiothreitol, 0.005% (v/v) Nonidet-P40 (Sigma)] was added and the mixture was incubated for 15 min at 22° C. to allow pre-binding of the test compounds to the enzyme before the start of the kinase reaction. Then the kinase reaction was started by the addition of 3 μL of a solution of adenosine-tri-phosphate (ATP, 3.3 mM=>final conc. in the 5 μL assay volume is 2 mM) and substrate (0.1 μM=>final conc. in the 5 μL assay volume is 0.06 μM) in assay buffer and the resulting mixture was incubated for a reaction time of 30 min at 22° C. The concentration of MKNK1 was adjusted depending of the activity of the enzyme lot and was chosen appropriate to have the assay in the linear range, typical concentrations were in the range of 0.003 μg/mL. The reaction was stopped by the addition of 5 μL of a solution of TR-FRET detection reagents (5 nM streptavidine-XL665 [Cisbio Bioassays, Codolet, France] and 1 nM anti-ribosomal protein S6 (pSer236)-antibody from Invitrogen [#44921G] and 1 nM LANCE EU-W1024 labeled ProteinG [Perkin-Elmer, product no. AD0071]) in an aqueous EDTA-solution (100 mM EDTA, 0.1% (w/v) bovine serum albumin in 50 mM HEPES pH 7.5).
as §1

T1 sequence (Q9BUB5 1-424 isoform Q9BUB5-2 T344D): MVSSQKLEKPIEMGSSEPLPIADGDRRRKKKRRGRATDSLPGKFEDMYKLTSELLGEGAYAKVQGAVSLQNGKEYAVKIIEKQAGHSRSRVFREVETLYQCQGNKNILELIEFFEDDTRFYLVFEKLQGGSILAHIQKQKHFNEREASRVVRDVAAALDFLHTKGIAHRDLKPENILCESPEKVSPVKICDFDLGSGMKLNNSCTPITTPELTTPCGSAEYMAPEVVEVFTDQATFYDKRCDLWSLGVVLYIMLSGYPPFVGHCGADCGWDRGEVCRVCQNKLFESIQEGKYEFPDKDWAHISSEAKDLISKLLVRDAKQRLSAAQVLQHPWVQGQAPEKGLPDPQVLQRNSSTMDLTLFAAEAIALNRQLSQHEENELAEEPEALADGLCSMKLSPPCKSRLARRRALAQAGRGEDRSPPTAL

Consider `N[C@H]1C[C@H](Oc2ccc3ncc(-c4cc5c(N6CCOCC6)nccc5o4)n3n2)C1` [III-95, trans-3-({3-[4-(Morpholin-4-yl)furo[3,2-c]pyridin-2-yl]imidazo[1,2-b]pyridazin-6-yl}oxy)cyclobutanamine], for which the concentration for half-maximal inhibition (IC50) was 3.2 nM against MKNK1 [1] (Table 1c) and 7.8 nM against MKNK1 [2] (Table 2c).
For `CC(=O)N1CCN(c2nccc3oc(-c4cnc5ccc(OCCCS(C)(=O)=O)nn45)cc23)CC1` [III-51, 1-[4-(2-{6-[3-(Methylsulfonyl)propoxy]imidazo[1,2-b]pyridazin-3-yl}furo[3,2-c]pyridin-4-yl)piperazin-1-yl]ethanone] the same measures were 7.3 nM and 14.2 nM.
Turning to `CN1C(=O)CC[C@H]1COc1ccc2ncc(-c3cc4ccccc4o3)n2n1` [Example I-32, (5S)-5-({[3-(1-Benzofuran-2-yl)imidazo[1,2-b]pyridazin-6-yl]oxy}methyl)-1-methylpyrrolidin-2-one], the results for the IC50 against MKNK1 [1] (Table 1a) and against MKNK1 [2] (Table 2a) were 13.7 nM and 39.8 nM, respectively.
`COc1ccc2ncc(-c3cc4c(N5CCN[C@@H](C)C5)nccc4o3)n2n1` [III-133, 6-methoxy-3-{4-[(3S)-3-methylpiperazin-1-yl]furo[3,2-c]pyridin-2-yl}imidazo[1,2-b]pyridazine]: the IC50 was found to be 2.7 nM against MKNK1 [1] (Table 1c) and 13.1 nM at MKNK1 [2] (Table 2c).
Turning to `Cn1ccc(C(=O)NCCOc2ccc3ncc(-c4cc5ccccc5o4)n3n2)n1` [Example I-79, N-(2-{[3-(1-Benzofuran-2-yl)imidazo[1,2-b]-pyridazin-6-yl]oxy}ethyl)-1-methyl-1H-pyrazole-3-carboxamide], the figures for the IC50 against MKNK1 [1] (Table 1a) and on MKNK1 [2] (Table 2a) were 10.1 nM and 25.5 nM, respectively.
For `CC1(C)CN(c2nccc3oc(-c4cnc5ccc(OC[C@@H]6CCC(=O)N6)nn45)cc23)CCN1` [III-134, (5S)-5-[({3-[4-(3,3-dimethylpiperazin-1-yl)furo[3,2-c]pyridin-2-yl]imidazo[1,2-b]pyridazin-6-yl}oxy)methyl]pyrrolidin-2-one], the concentration for half-maximal inhibition (IC50) amounted to 2 nM on MKNK1 [1] (Table 1c) and 1 nM against MKNK1 [2] (Table 2c).
Turning to `CC1(C)CN(c2cccc3oc(-c4cnc5ccc(OC[C@H]6CCC(=O)N6)nn45)cc23)CCN1` [II-46, (5R)-5-[({3-[4-(3,3-dimethylpiperazin-1-yl)-1-benzofuran-2-yl]imidazo[1,2-b]pyridazin-6-yl}oxy)methyl]pyrrolidin-2-one], the half-maximal inhibitory concentration (IC50) on MKNK1 [1] (Table 1b) was found to be 1.4 nM; against MKNK1 [2] (Table 2b), 0.2 nM.
As to `O=C(c1cccs1)N1CCC[C@H]1CCOc1ccc2ncc(-c3cc4ccccc4o3)n2n1` [Example I-43, [(2S)-2-(2-{[3-(1-Benzofuran-2-yl)imidazo[1,2-b]pyridazin-6-yl]oxy}ethyl)pyrrolidin-1-yl](thiophen-2-yl)methanone], the IC50 on MKNK1 [1] (Table 1a) was found to be 1 nM; at MKNK1 [2] (Table 2a) it was 1.3 nM.
Consider `COc1cccc2oc(-c3cnc4ccc(OC[C@@H]5CCC(=O)N5)nn34)cc12` [Example I-19, (5S)-5-({[3-(4-Methoxy-1-benzofuran-2-yl)imidazo[1,2-b]pyridazin-6-yl]oxy}-methyl)pyrrolidin-2-one], for which the IC50 came out at 4.5 nM on MKNK1 [1] (Table 1a) and 15.4 nM against MKNK1 [2] (Table 2a).
The like results for `O=C1NCCC1Oc1ccc2ncc(-c3cc4ccccc4o3)n2n1` (centres unmarked) [Example I-38, 3-{[3-(1-Benzofuran-2-yl)imidazo[1,2-b]pyridazin-6-yl]oxy}pyrrolidin-2-one] were, in that order, 64 nM and 71.7 nM.
For the compound `C[C@@H]1COCCN1c1cccc2oc(-c3cnc4ccc(OC[C@@H]5CCC(=O)N5)nn34)cc12` [II-51, (5S)-5-{[(3-{4-[(3R)-3-methylmorpholin-4-yl]-1-benzofuran-2-yl}imidazo[1,2-b]pyridazin-6-yl)oxy]methyl}pyrrolidin-2-one], the results for the IC50 against MKNK1 [1] (Table 1b) and on MKNK1 [2] (Table 2b) were 2.8 nM and 50.8 nM, respectively.
Turning to `COc1ccc2ncc(-c3cc4c(N5CCNC[C@@H]5C)cccc4o3)n2n1` [II-28, 6-methoxy-3-{4-[(2S)-2-methylpiperazin-1-yl]-1-benzofuran-2-yl}imidazo[1,2-b]pyridazine], the IC50 against MKNK1 [1] (Table 1b) is 5.1 nM; at MKNK1 [2] (Table 2b) it was 0.7 nM.
On to `c1cc2oc(-c3cnc4ccc(OC[C@H]5CCCCN5)nn34)cc2c(N2CCOCC2)n1` (stereo in doubt) [III-140, 3-[4-(morpholin-4-yl)furo[3,2-c]pyridin-2-yl]-6-(piperidin-2-ylmeth-oxy)imidazo[1,2-b]pyridazine], for which the IC50 turned out to be 80 nM on MKNK1 [1] (Table 1c) and 183 nM against MKNK1 [2] (Table 2c).
With `CC(C)(C)CC(=O)N1CCOC(COc2ccc3ncc(-c4cc5ccccc5o4)n3n2)C1` (centres unmarked) [Example I-14, 1-[2-({[3-(1-Benzofuran-2-yl)imidazo[1,2-b]pyridazin-6-yl]oxy}methyl)-morpholin-4-yl]-3,3-dimethylbutan-1-one], the IC50 against MKNK1 [1] (Table 1a) is 5.1 nM; against MKNK1 [2] (Table 2a) it was 10.9 nM.
Turning to `C[C@H](N)COc1ccc2ncc(-c3cc4c(N5CCOCC5)nccc4o3)n2n1` [III-7, (2S)-1-({3-[4-(Morpholin-4-yl)furo[3,2-c]pyridin-2-yl]imidazo[1,2-b]pyridazin-6-yl}oxy)propan-2-amine], the IC50 is 11.6 nM on MKNK1 [1] (Table 1c) and 21.7 nM against MKNK1 [2] (Table 2c).
The like results for `CCN(CCOC)c1nccc2oc(-c3cnc4ccc(O[C@H]5Cc6ccccc6[C@@H]5N)nn34)cc12` [III-111, 2-(6-{[(1S,2S)-1-Amino-2,3-dihydro-1H-inden-2-yl]oxy}imidazo[1,2-b]pyridazin-3-yl)-N-ethyl-N-(2-methoxyethyl)furo[3,2-c]pyridin-4-amine] were, in that order, 3.8 nM and 42.2 nM.
`COC[C@H]1CCCN1c1cccc2oc(-c3cnc4ccc(OC[C@H]5CNCC(=O)N5)nn34)cc12` [II-48, (6R)-6-{[(3-{4-[(2R)-2-(methoxymethyl)pyrrolidin-1-yl]-1-benzofuran-2-yl}imidazo[1,2-b]pyridazin-6-yl)oxy]methyl}piperazin-2-one]: the 50% inhibitory concentration (IC50) on MKNK1 [1] (Table 1b) amounted to 7 nM; at MKNK1 [2] (Table 2b), 3.9 nM.
For the compound `CN1CCN(c2nccc3oc(-c4cnc5ccc(O[C@H]6C[C@@H](N)C6)nn45)cc23)CC1` [III-96, cis-3-({3-[4-(4-Methylpiperazin-1-yl)furo[3,2-c]pyridin-2-yl]imidazo[1,2-b]pyridazin-6-yl}oxy)cyclobutanamine], the 50% inhibitory concentration (IC50) against MKNK1 [1] (Table 1c) came out at 3.9 nM; at MKNK1 [2] (Table 2c) it was 3.4 nM.
Consider `CCN(CCOC)c1nccc2oc(-c3cnc4ccc(O[C@H]5C[C@H](N)C5)nn34)cc12` [III-101, 2-{6-[(trans-3-Aminocyclobutyl)oxy]imidazo[1,2-b]pyridazin-3-yl}-N-ethyl-N-(2-methoxyethyl)furo[3,2-c]pyridin-4-amine], for which the results for the IC50 against MKNK1 [1] (Table 1c) and on MKNK1 [2] (Table 2c) were 0.8 nM and 1.2 nM, respectively.

As usually defined, the IC50 is the concentration that inhibits the measured activity by half. A higher IC50 goes with a need for much substance.
